Measured values taken from US20070185150A1, “Therapeutic methods” (priority 2005, published 2007).

Tests used:
[1] = Phase I dose escalation trial of oral AP23573: safety, tolerability and maximum tolerated dose; type: in vivo, patients
Description: Background: In phase I clinical trials with an intravenous (IV) formulation of the mTOR inhibitor, AP23573, the drug was well-tolerated and active in a broad range of cancers. This trial is undertaken to assess the safety, tolerability and maximum tolerated dose (MTD) of an orally administered dosage form of AP23573. Secondary objectives include characterization of the pharmacokinetic (PK) and pharmacodynamic (PD) profiles of AP23573, as well as antitumor activity.
(§1) Methods: Eligible patients (in cohorts of at least 3 patients) initially are randomized at the same flat, fixed starting dose of 20 mg/day into one of three 28-day dosing schedules, i.e. once daily continuous dosing for 4 days every week (QD×4), 21 of 28 days (QD×21), or all 28 days (QD×28). The subsequent dose level is determined based on review of safety and tolerability during Cycle 1 and enrollment for each schedule proceeds independently. Antitumor activity is assessed every 2 cycles. Whole blood is collected for PK assessment and peripheral blood mononuclear cells collected for PD assessment of the levels of phosphorylated 4E-BP1, a downstream target of mTOR.

[2] = Phase I trial of oral AP23573: whole blood PK assessment; type: in vivo, patients; settings: three schedules, 20 mg/day, Day 1 of Cycle 1, preliminary PK analysis
Experimental: as §1

[3] = test system: phosphorylated 4E-BP1, a downstream target of mTOR; test: Phase I trial of oral AP23573: PD assessment of phosphorylated 4E-BP1 levels in peripheral blood mononuclear cells; type: in vivo, patients
Experimental: as §1

[4] = test system: refractory or advanced malignancies; test: Phase I trial of oral AP23573: antitumor activity assessed every 2 cycles; type: in vivo, patients
Experimental: as §1

sarcoma and other tumors = test: Additional clinical studies of oral AP23573 on QD×5 schedule: anti-tumor activity (Clinical Benefit Response); type: in vivo, patients; settings: QD×5 schedules
Experimental: (§2) Additional clinical studies of AP23573 were conducted using a QD×5 dosing schedule for the delivery of 30, 40 or 50 mg of AP23573/day. A set of patients receiving the 30 mg and 50 mg doses were also given a loading dose on the first day of each week, which doubled the dose that day to 60 and 100 mg, respectively.
(§3) Methods: In a Phase 1/2a trial of single-agent oral AP23573, 17 patients, 9 of whom are sarcoma patients, were studied at the chosen dose and schedule (40 mg QD×5). In addition, of 7 patients who began dosing at 50 mg QD×5, 4 patients (2 of whom are sarcoma patients) underwent dose reduction to 40 mg. Twenty-one patients, therefore, received 40 mg QD×5, of whom 11 are sarcoma patients.
(§4) In another QD×5 study in which the dose on day 1 of each week was doubled (to comprise a loading dose), 7 patients (6 sarcoma patients) received doses of 60, 30, 30, 30 and 30 mg over each week (i.e., 30 mg QD×5, with the dose on day 1 doubled). Five other patients (2 sarcoma patients) received 50 mg QD×5, with the dose on day 1 doubled to 100 mg.
(§5) Overall, 36 patients were dosed on a QD×5 schedule, of whom 12 received loading doses on day 1 of each week.

[5] = Additional clinical studies of oral AP23573 on QD×5 schedule: tolerability; type: in vivo
Experimental: as §2, §3, §4, §5

## CO[C@H]1C[C@@H]2CC[C@@H](C)[C@@](O)(O2)C(=O)C(=O)N2CCCC[C@H]2C(=O)O[C@H]([C@H](C)C[C@@H]2CC[C@@H](OP(C)(C)=O)[C@H](OC)C2)CC(=O)[C@H](C)/C=C(\C)[C@@H](O)[C@@H](OC)C(=O)[C@H](C)C[C@H](C)/C=C/C=C/C=C/1C [AP23573]
[1]; QD×4 20 mg/day cohort
  dose-limiting toxicity (DLT): no dose-limiting toxicity (DLT) was reported
[1]; QD×4 30 mg/day schedule
  dose-limiting toxicity (DLT): no DLTs
[1]; QD×4 60 and 70 mg/day cohort
  side effects: side effects were reported
[1]; QD×4 schedule
  maximum tolerated daily dose: 50 mg/day
[1]; QD×21 cohort, 20 mg/day
  dose-limiting toxicity (DLT): severe stomatitis and fatigue
[1]; QD×21 schedule
  maximum tolerated daily dose: 10 mg/day
[1]; QD×28 cohort, 20 mg/day
  dose-limiting toxicity (DLT): severe stomatitis and fatigue
[1]; QD×28 schedule
  maximum tolerated daily dose: 15 mg/day
[1]; three schedules
  severity of adverse events related to AP23573 during Cycle 1: mild or moderate in severity, reversible
[1]; three schedules, 10 to 30 mg/day
  adverse events related to AP23573 during Cycle 1 in at least 2 patients: mucositis, fatigue, rash, diarrhea, anorexia, and nausea
[2]
  Cmax range: 77 to 163 ng/mL
  median Cmax: 98.5 ng/mL
[3]; 1 day after dosing
  reduction of phosphorylated 4E-BP1 levels: > 80%
[3]; during the dosing period
  phosphorylated 4E-BP1 levels during the dosing period: remain reduced during the dosing period
[4]; patient with metastatic breast carcinoma, qd×4, 20 mg/day cohort
  antitumor activity (decrease): 22%
[4]; patient with metastatic renal cell carcinoma, qd×21, 20 mg/day cohort
  antitumor activity (decrease): 21%
[4]; patient with soft tissue sarcoma, QD×4, 20 mg/day cohort, after 2 cycles
  disease status: stable disease
Sarcoma and other tumors
  evaluable sarcoma patients that were CBRs: 43%
Sarcoma and other tumors; of the 26 evaluable patients
  patients achieving a Clinical Benefit Response (CBR): Seven
[5]; 40 mg QD×5
  side-effects: generally mild or moderate and manageable
[5]; 50 mg QD×5 with the dose on day 1 doubled to 100 mg
  tolerability of dose level: exceed the maximum tolerated dose
